From patent US11273218B2, “Methods for treating Angelman syndrome and related disorders” (Cavion, Inc., priority 2015, dated 2022)
Where two headings read alike, the source gives them in different places.

Columns and labels:
[1] = tested on: CaMKIIα; details: striatum, cited from earlier work
[2] = tested on: UBE3/129sv mice; experiment: Audiogenic-induced epilepsy test (Test 1) in Angelman syndrome mouse model; format: in vivo; details: oral gavage for 7 days, AS mice
Protocol: Three separate tests were performed to determine effects of two compounds, mibefradil and MK-8998 on behavioral and physiological deficits and epilepsy in a mouse model for Angelman syndrome. The tests included: audiogenic-induced epilepsy test (Test 1, T1), a battery of motor/behavioral tests (Test 2, T2) and long-term potentiation measurements (LTP, Test 3, T3). Completion of each test provided a quantitative result of mibefradil or MK-8998 effect on this test. For all three tests, 2 separate groups of mice were generated: group 1 for test 1 and group 2 for tests 2 and 3, as shown below in see Table 2 and each group consists of 6 subgroups, a-f.
For all behavioral and electrophysiology experiments female Ube3am^−/p^+KO mice (i.e., AS mice) were crossed with wild-type males, to generate heterozygous AS mice and littermate controls in the F1 hybrid 12952-C57BL/6 background. For epilepsy tests, AS mice are crossed with controls in the 12952/SvPasCrl background. In total, 2 groups of mice are required: group 1 for the epilepsy test (Table 2, group 1a-f) and group 2 for the behavioral test battery and electrophysiology (Table 2, group 2a-f). […] The number of mice used per test/subgroup is indicated in Table 2 and ranges from 5-7 mice/subgroup for electrophysiology, 10 mice/subgroup for epilepsy test, and 12 to 15 mice/subgroup for behavioral test battery. […]

For `[Cl][Ni][Cl]` [NiCl2], the “decrease of threonine autophosphorylation of CaMKIIα” value ([1]; 100 μM) is listed as 35%.

For `CC(C)c1ccc(CC(=O)N[C@H](C)c2ccc(OCC(F)(F)F)cn2)cc1` [MK-8998], the “treated animals with seizures eliminated completely” value ([2]; 60 mg/kg, audiogenic-induced seizures) was “about 80%” and the “effect on audiogenic-induced seizures (in words)” value ([2]; 10, 30, 60 mg/kg) was “eliminated seizures in a dose-dependent manner”.

In the case of `COCC(=O)O[C@]1(CCN(C)CCCc2nc3ccccc3[nH]2)CCc2cc(F)ccc2[C@@H]1C(C)C` [mibefradil], the “decrease of threonine autophosphorylation of CaMKIIα” value ([1]; 5 μM) is given as 37%.
